Data on 16 compounds can be found in US12459951B2, “Compounds that interact with RAS superfamily proteins for treatment of cancers, inflammatory diseases, rasopathies, and fibrotic disease” (SHY Therapeutics, LLC, priority 2022, dated 2025).

In one test the test system is Erk1/2 phosphorylation. The test can be described thus: Erk1/2 Phosphorylation Assay (western blot), Panc-1. The class given is cell-based, human. Particulars: at 10 μM, * = activation. The essentials:
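KRas G12D Panc-1 cells were treated 6 h at 37° C with compound at 10 μM or serial dilutions for IC50 (0.3% DMSO). In method 1, cells were serum-starved overnight (0.5% FBS) and then given 1.5 ng/ml EGF for 15 min. In method 2, cells stayed in 10% FBS without stimulation. Lysate phospho-Erk1/2 (Thr202/Tyr204) was read by western blot.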
(In western blotting, separated proteins are transferred to a membrane and probed.)

For test [1], the system named is MiaPaca-2 (expressing KRAS G12C mutant). The test can be described thus: Proliferation Assay (Cell Viability Assay). The class given is cell-based. To be noted: Homo sapiens, MIA PaCa-2; read-out: Proliferation in MiaPaca-2: IC50. The essentials: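 MiaPaca-2 cells (KRAS G12C) were grown in DMEM-high glucose with 10% FBS, seeded at 2000–5000 cells/well and cultured overnight. Compounds were added at 10 μM final, or as serial dilutions for IC50, in 0.3% DMSO/10% FBS for 2–4 days at 37 °C, 5% CO2. Viability was measured with CellTiter 96 Aqueous One and % inhibition calculated.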

SMILES strings stand for the structures.

Regarding `CO[C@H]1CC[C@H](Nc2nc(-c3nccn3C)nn3cc(-c4cccnc4)c(-c4ccccc4)c23)C1` (racemic) [Compound 194, rac N-((1S,3S)-3-Methoxycyclopentyl)-2-(1-methyl-1H-imidazol-2-yl)-5-phenyl-6-(pyridin-3-yl)pyrrolo[2,1-f][1,2,4]triazin-4-amine], the “% inh of Erk1/2 phosphorylation in Panc-1” value (shortened to “% inh”) in the test with Erk1/2 phosphorylation is given as “D* (85-100% activation)”. Also, the IC50 in test [1] was more than 1000 nM.

For `COCC1CCN(c2nc(-c3ccccn3)nn3cc(-c4ccn(C(C)C)n4)c(C)c23)C1` (racemic) [Compound 10, rac 6-(1-Isopropyl-1H-pyrazol-3-yl)-4-(3-(methoxymethyl)pyrrolidin-1-yl)-5-methyl-2-(pyridin-2-yl)pyrrolo[2,1-f][1,2,4]triazine], in the test on Erk1/2 phosphorylation, the “% inh” value is reported as 0 (0% inhibition). The IC50 in test [1] was more than 1000 nM.

Turning to `CO[C@H]1C[C@H](Nc2nc(-c3nccn3C)nn3cc(-c4cccc(CN)c4)c(-c4ccccc4)c23)C1` [Compound 204, 6-(3-(aminomethyl)phenyl)-N-((1r,3r)-3-methoxycyclobutyl)-2-(1-methyl-1H-imidazol-2-yl)-5-phenylpyrrolo[2,1-f][1,2,4]triazin-4-amine], the “% inh” value in the test with Erk1/2 phosphorylation is “D* (85-100% activation)”. In test [1], the IC50 is more than 1000 nM.

As for `COc1ccnc(Nc2nc(-c3nccn3C)nn3cc(-c4ccn(C)n4)c(C(=O)N4CCCC4)c23)c1` [Compound 178, (4-((4-Methoxypyridin-2-yl)amino)-2-(1-methyl-1H-imidazol-2-yl)-6-(1-methyl-1H-pyrazol-3-yl)pyrrolo[2,1-f][1,2,4]triazin-5-yl)(pyrrolidin-1-yl)methanone], the “% inh” value in the test with Erk1/2 phosphorylation is listed as “D* (85-100% activation)”. The IC50 in test [1] was more than 1000 nM.

Turning to `Cc1c(-c2ccn(C)n2)cn2nc(-c3nccn3C)nc(O)c12` [Compound 172, 5-Methyl-2-(1-methyl-1H-imidazol-2-yl)-6-(1-methyl-1H-pyrazol-3-yl)pyrrolo[2,1-f][1,2,4]triazin-4-ol], the “% inh” value in the test with Erk1/2 phosphorylation is given as 0 (0% inhibition). The IC50 in test [1] is more than 1000 nM.

As to `CO[C@H]1CC[C@H](Nc2nc(-c3nccn3C)nn3cc(-c4ccn(C)n4)c(C(=O)NCC(F)(F)F)c23)C1` (racemic) [Compound 181, 4-(((1S,3S)-3-Methoxycyclopentyl)amino)-2-(1-methyl-1H-imidazol-2-yl)-6-(1-methyl-1H-pyrazol-3-yl)-N-(2,2,2-trifluoroethyl)pyrrolo[2,1-f][1,2,4]triazine-5-carboxamide], the “% inh” value in the test on Erk1/2 phosphorylation is “A (1-25% inhibition)”. The IC50 in test [1] is more than 1000 nM.

Regarding `CO[C@H]1CC[C@@H](Nc2nc(-c3nccn3C)nn3cc(-c4cccnc4)c(-c4ccccc4)c23)C1` (racemic) [Compound 193, rac N-((1R,3S)-3-Methoxycyclopentyl)-2-(1-methyl-1H-imidazol-2-yl)-5-phenyl-6-(pyridin-3-yl)pyrrolo[2,1-f][1,2,4]triazin-4-amine], the “% inh” value in the test with Erk1/2 phosphorylation is “D* (85-100% activation)”. The IC50 in test [1] was more than 1000 nM.

For `Cc1c(-c2ccn(C)n2)cn2nc(-c3nccn3C)nc(Nc3ccc(-n4ccnc4C)cn3)c12` [Compound 243, 5-Methyl-N-(5-(2-methyl-1H-imidazol-1-yl)pyridin-2-yl)-2-(1-methyl-1H-imidazol-2-yl)-6-(1-methyl-1H-pyrazol-3-yl)pyrrolo[2,1-f][1,2,4]triazin-4-amine], the “% inh” value in the test with Erk1/2 phosphorylation is on record as “C* (46-84% activation)”. The IC50 in test [1] was less than 150 nM.

Take `COCCNC(=O)c1c(-c2ccn(C)n2)cn2nc(-c3nccn3C)nc(Nc3cc(OC)ccn3)c12` [Compound 176, N-(2-Methoxyethyl)-4-((4-methoxypyridin-2-yl)amino)-2-(1-methyl-1H-imidazol-2-yl)-6-(1-methyl-1H-pyrazol-3-yl)pyrrolo[2,1-f][1,2,4]triazine-5-carboxamide]: the “% inh” value in the test on Erk1/2 phosphorylation is on record as “D* (85-100% activation)”. The IC50 in test [1] lay in the range of 510 to 1000 nM.

`COc1ccnc(Nc2nc(-c3nccn3C)nn3cc(-c4ccn(C)n4)c(C(=O)N4CCOCC4)c23)c1` [Compound 179, (4-((4-Methoxypyridin-2-yl)amino)-2-(1-methyl-1H-imidazol-2-yl)-6-(1-methyl-1H-pyrazol-3-yl)pyrrolo[2,1-f][1,2,4]triazin-5-yl)(morpho-lino)methanone]: the “% inh” value in the test on Erk1/2 phosphorylation is “D* (85-100% activation)”. In addition, the IC50 in test [1] was more than 1000 nM.

Regarding `Cn1ccnc1-c1nc(O)c2c(-c3ccccc3)c(-c3cccnc3)cn2n1` [Compound 189, 2-(1-Methyl-1H-imidazol-2-yl)-5-phenyl-6-(pyridin-3-yl)pyrrolo[2,1-f][1,2,4]triazin-4-ol], the “% inh” value in the test on Erk1/2 phosphorylation was “A* (1-25% activation)”. In addition, the IC50 in test [1] was more than 1000 nM.

In the case of `Cc1c(-c2ccn(C)n2)cn2nc(-c3nccn3C)nc(Nc3ccc(C(F)(F)F)cn3)c12` [Compound 233, 5-Methyl-2-(1-methyl-1H-imidazol-2-yl)-6-(1-methyl-1H-pyrazol-3-yl)-N-(5-(trifluoromethyl)pyridin-2-yl)pyrrolo[2,1-f][1,2,4]triazin-4-amine], the “% inh” value in the test with Erk1/2 phosphorylation is recorded as “D* (85-100% activation)”. The IC50 in test [1] is less than 150 nM.

For `COCCNc1nc(-c2nccn2C)nn2cc(-c3ccncc3)c(-c3ccccc3)c12` [Compound 202, N-(2-Methoxyethyl)-2-(1-methyl-1H-imidazol-2-yl)-5-phenyl-6-(pyridin-4-yl)pyrrolo[2,1-f][1,2,4]triazin-4-amine], the “% inh” value in the test with Erk1/2 phosphorylation is recorded as “D* (85-100% activation)”. The IC50 in test [1] was more than 1000 nM.

With `COc1ccnc(Nc2nc(-c3nccn3C)nn3cc(-c4ccn(C)n4)c(C(=O)NCCN(C)C)c23)c1` [Compound 177, N-(2-(Dimethylamino)ethyl)-4-((4-methoxypyridin-2-yl)amino)-2-(1-methyl-1H-imidazol-2-yl)-6-(1-methyl-1H-pyrazol-3-yl)pyrrolo[2,1-f][1,2,4]triazine-5-carboxamide], the “% inh” value in the test on Erk1/2 phosphorylation was “D* (85-100% activation)”. Further, in test [1], the IC50 is more than 1000 nM.

Turning to `COc1ccnc(Nc2nc(-c3nccn3CCNC(=O)CCCC[C@H]3SC[C@H]4NC(=O)N[C@H]43)nn3cc(-c4ccn(C)n4)c(C)c23)c1` [Compound 216, N-(2-(2-(4-((4-methoxypyridin-2-yl)amino)-5-methyl-6-(1-methyl-1H-pyrazol-3-yl)pyrrolo[2,1-f][1,2,4]triazin-2-yl)-1H-imidazol-1-yl)ethyl)-5-((3aR,4R,6aS)-2-oxohexahydro-1H-thieno[3,4-d]imidazol-4-yl)pentanamide], the “% inh” value with Erk1/2 phosphorylation was “C* (46-84% activation)”. Moreover, the IC50 in test [1] is more than 1000 nM.

In the case of `CO[C@H]1C[C@H](Nc2nc(-c3nccn3C)nn3cc(-c4cnccc4C)c(-c4ccccc4)c23)C1` [Compound 218, N-((1r,3r)-3-Methoxycyclobutyl)-2-(1-methyl-1H-imidazol-2-yl)-6-(4-methylpyridin-3-yl)-5-phenylpyrrolo[2,1-f][1,2,4]triazin-4-amine], in the test with Erk1/2 phosphorylation, the “% inh” value is “D* (85-100% activation)”. In addition, the IC50 in test [1] was more than 1000 nM.
